Reference: patent publication US9375005B2, “5-halogenopyrazole indanyl carboxamides” (BAYER CROPSCIENCE AG, priority 2012, dated 2016)

What was measured:
Alternaria brassicae = experiment: In vivo preventive test on Alternaria brassicae (leaf spot on radish); conditions: dose 500 ppm; radish plants sprayed 24 h before contamination; grading 6 days after contamination vs control plants
Description: Radish plants (“Pernod Clair” variety), sown in starter cups on a 50/50 peat soil-pozzolana substrate and grown at 17° C., are treated at the cotyledon stage by spraying with the active ingredient prepared as described above. Plants, used as controls, are treated with the mixture of acetone/tween/DMSO/water not containing the active material. After 24 hours, the plants are contaminated by spraying the cotyledons with an aqueous suspension of Alternaria brassicae spores (50 000 spores per ml). The spores are collected from a 15-day-old culture. […] Grading (% of efficacy) is carried out 6 days after the contamination, in comparison with the control plants.

Puccinia recondita = experiment: In vivo preventive test on Puccinia recondita (brown rust on wheat); conditions: wheat plants sprayed 24 h before contamination, grading 12 days after contamination
Description: Plants, used as controls, are treated with the mixture of acetone/tween/DMSO/water not containing the active material. After 24 hours, the plants are contaminated by spraying the leaves with an aqueous suspension of Puccinia recondita spores (100 000 spores per ml). […] Grading (% of efficacy) is carried out 12 days after the contamination, in comparison with the control plants.

[1] = Measurement of log P values by HPLC on reversed phase columns (EEC directive 79/831 Annex V.A8); type: physicochemical
Sphaerotheca fuliginea = experiment: In vivo preventive test on Sphaerotheca fuliginea (powdery mildew on cucurbits); conditions: gherkin plants sprayed 24 h before contamination, grading 12 days after contamination
Description: Gherkin plants (“Vert petit de Paris” variety), sown in starter cups on a 50/50 peat soil-pozzolana substrate and grown at 24° C., are treated at the Z11 cotyledon stage by spraying with the active ingredient prepared as described above. Plants, used as controls, are treated with the mixture of acetone/tween/DMSO/water not containing the active material. After 24 hours, the plants are contaminated by spraying the cotyledons with an aqueous suspension of Sphaerotheca fuliginea spores (100 000 spores per ml). The spores are collected from infected plants. The contaminated to gherkin plants are incubated at about 20° C. and at 70-80% relative humidity. Grading (% of efficacy) is carried out 12 days after the contamination, in comparison with the control plants.

Pyrenophora teres = experiment: In vivo preventive test on Pyrenophora teres (net blotch on barley); conditions: barley plants sprayed 24 h before contamination, grading 14 days after contamination
Description: Barley plants (“Plaisant” variety), sown in starter cups on a 50/50 peat soil-pozzolana substrate and grown at 22° C., are treated at the 1-leaf stage (10 cm height) by spraying with the active ingredient prepared as described above. Plants, used as controls, are treated with the mixture of acetone/tween/DMSO/water not containing the active material. After 24 hours, the plants are contaminated by spraying the leaves with an aqueous suspension of Pyrenophora teres spores (12 000 spores per ml). The spores are collected from a 12-day-old culture. […] Grading (% of efficacy) is carried out 14 days after the contamination, in comparison with the control plants.

Uromyces appendiculatus = experiment: In vivo preventive test on Uromyces appendiculatus (bean rust); conditions: bean plants sprayed 24 h before contamination, grading 11 days after contamination
Description: Bean plants (“Saxa” variety), sown in starter cups on a 50/50 peat soil-pozzolana substrate and grown at 24° C., are treated at the 2-leaf stage (9 cm height) by spraying with the active ingredient prepared as described above. Plants, used as controls, are treated with the mixture of acetone/tween/DMSO/water not containing the active material. After 24 hours, the plants are contaminated by spraying the leaves with an aqueous suspension of Uromyces appendiculatus spores (150 000 spores per ml). […] Grading (% of efficacy) is carried out 11 days after the contamination, in comparison with the control plants.

Septoria tritici = experiment: In vivo preventive test on Septoria tritici (leaf spot on wheat); conditions: dose 500 ppm; wheat plants sprayed 24 h before contamination; grading 24 days after contamination
Description: Wheat plants (“Scipion” variety), sown in starter cups on a 50/50 peat soil-pozzolana substrate and grown at 22° C., are treated at the 1-leaf stage (10 cm height) by spraying with the active ingredient prepared as described above. Plants, used as controls, are treated with the mixture of acetone/tween/DMSO/water not containing the active material. After 24 hours, the plants are contaminated by spraying the leaves with an aqueous suspension of cryopreserved Septoria tritici spores (500 000 spores per ml). […] Grading (% of efficacy) is carried out 24 days after the contamination, in comparison with the control plants.

Row | SMILES | logP ([1]; method marked [a]) | logP ([1]; method marked [b]) | Eff. % (Alternaria brassicae) | Eff. % (Puccinia recondita; dose 500 ppm) | Eff. % (Sphaerotheca fuliginea; dose 500 ppm) | Eff. % (Pyrenophora teres; dose 500 ppm) | Eff. % (Uromyces appendiculatus; dose 500 ppm) | Eff. % (Septoria tritici) | Eff. % (Puccinia recondita; dose 100 ppm) | Eff. % (Sphaerotheca fuliginea; dose 100 ppm) | Eff. % (Pyrenophora teres; dose 100 ppm) | Eff. % (Uromyces appendiculatus; dose 100 ppm)
1 | CON=C1c2cccc(NC(=O)c3c(C(F)F)nn(C)c3F)c2CC1(C)C (mixture of isomers) [Example 61] | – | – | 75% | 86% | – | – | – | – | – | – | – | –
2 | CCC1(C)CCc2c(NC(=O)c3c(C(F)F)nn(C)c3Cl)cccc21 (single isomer, unassigned) [Example 53] | 4.04[a] | – | 79% | 100% | 98% | 80% | 100% | – | – | – | – | –
3 | CC(C)C1Cc2c(NC(=O)c3c(C(F)F)nn(C)c3Cl)cccc2C1(C)C (centres unmarked) [Example 6] | 4.95[a] | – | 78% | 100% | 100% | – | 100% | – | – | – | – | –
4 | CC1CC(C)(C)c2c(F)ccc(NC(=O)c3c(C(F)F)nn(C)c3Cl)c21 (centres unmarked) [Example 37] | 4.11[a] | – | 97% | – | 100% | 75% | 100% | – | – | – | – | –
5 | CC(C)CC1CCc2c(NC(=O)c3c(C(F)F)nn(C)c3Cl)cccc21 (centres unmarked) [Example 40] | 4.87[a] | – | 97% | 100% | – | 80% | 100% | – | – | – | – | –
6 | CC(C)CC1CCc2c(NC(=O)c3c(C(F)F)nn(C)c3F)cccc21 (centres unmarked) [Example 41] | 4.59[a] | – | 95% | 97% | – | – | 100% | – | – | – | – | –
7 | CC(C)C1Cc2cccc(NC(=O)c3c(C(F)F)nn(C)c3Cl)c2C1C (centres unmarked) [Example 47] | 4.68[a] | – | – | 83% | – | – | 86% | 80% | – | – | – | –
8 | CC(C)CC1CCc2c(NC(=O)c3c(C(F)F)nn(C)c3Cl)cccc21 (centres unmarked) [Example 66] | – | – | 97% | 100% | – | 80% | 100% | – | – | – | – | –
9 | CC1CC(CC(C)(C)C)c2cccc(NC(=O)c3c(C(F)F)nn(C)c3Cl)c21 (centres unmarked) [Example 69] | 5.22[a] | – | – | 98% | 100% | – | 100% | 71% | – | – | – | –
10 | Cn1nc(C(F)F)c(C(=S)Nc2cccc3c2CCC3C(C)(C)C)c1F (centres unmarked) [Example 75] | 4.51[a] | – | – | 100% | 100% | – | 100% | 79% | – | – | – | –
11 | CC1c2cccc(NC(=O)c3c(C(F)F)nn(C)c3Cl)c2CC1(C)C (centres unmarked) [Example 77] | 4.19[a] | – | – | 100% | 98% | – | 100% | – | – | – | – | –
12 | CCON=C1CC(C)c2c(NC(=O)c3c(C(F)F)nn(C)c3F)cccc21 (centres unmarked) [Example 83] | 3.18[a] | – | 86% | 88% | – | 83% | 95% | – | – | – | – | –
13 | CC1CC(CC(C)(C)C)c2cccc(NC(=S)c3c(C(F)F)nn(C)c3F)c21 (centres unmarked) [Example 87] | 5.08[a] | – | 75% | 98% | 98% | – | 100% | – | – | – | – | –
14 | CCCON=C1CC(C)c2c(NC(=O)c3c(C(F)F)nn(C)c3F)cccc21 (centres unmarked) [Example 91] | 3.67[a] | – | 86% | 94% | – | 83% | 100% | – | – | – | – | –
15 | CC(C)C1Cc2c(NC(=S)c3c(C(F)F)nn(C)c3Cl)cccc2C1(C)C (centres unmarked) [Example 92] | 4.9[a] | – | – | – | – | – | – | – | 94% | 100% | 70% | 100%
16 | CC(C)C1Cc2c(NC(=S)c3c(C(F)F)nn(C)c3F)cccc2C1(C)C (centres unmarked) [Example 95] | 4.76[a] | – | – | – | – | – | – | – | 98% | 100% | 70% | 100%
17 | CC1CC2(CCCCC2)c2cccc(NC(=S)c3c(C(F)F)nn(C)c3F)c21 (centres unmarked) [Example 104] | 4.88[a] | – | – | – | – | – | – | – | 100% | 100% | – | 100%
18 | CCC1Cc2c(NC(=S)c3c(C(F)F)nn(C)c3Cl)cccc2C1(C)C (centres unmarked) [Example 105] | 4.58[a] | – | – | – | – | – | – | – | 100% | 94% | 70% | 100%
19 | CCC1Cc2c(NC(=S)c3c(C(F)F)nn(C)c3F)cccc2C1(C)C (centres unmarked) [Example 106] | 4.46[a] | – | – | – | – | – | – | – | 100% | 89% | 80% | 94%

Continued, in another order:

Row | logP ([1]; method marked [a]) | logP ([1]; method marked [b]) | SMILES | Eff. % (Alternaria brassicae) | Eff. % (Puccinia recondita; dose 500 ppm) | Eff. % (Sphaerotheca fuliginea; dose 500 ppm) | Eff. % (Pyrenophora teres; dose 500 ppm) | Eff. % (Uromyces appendiculatus; dose 500 ppm) | Eff. % (Septoria tritici) | Eff. % (Puccinia recondita; dose 100 ppm) | Eff. % (Sphaerotheca fuliginea; dose 100 ppm) | Eff. % (Pyrenophora teres; dose 100 ppm) | Eff. % (Uromyces appendiculatus; dose 100 ppm)
20 | 4.6[a]; | 4.53[b] | CC1CC(C)(C)c2c(Cl)ccc(NC(=O)c3c(C(F)F)nn(C)c3Cl)c21 (centres unmarked) [Example 12] | 94% | 93% | – | – | 96% | – | – | – | – | –
21 | 3.58[a] | – | Cn1nc(C(F)F)c(C(=O)Nc2cccc3c2CCC32CC2)c1Cl [Example 14] | 97% | 100% | – | – | 100% | – | – | – | – | –
22 | 4.24[a] | – | CCCCON=C1CCc2c(NC(=O)c3c(C(F)F)nn(C)c3Cl)cccc21 [Example 22] | 86% | – | – | – | – | – | – | – | – | –
23 | 3.76[a] | – | CCCON=C1CCc2c(NC(=O)c3c(C(F)F)nn(C)c3Cl)cccc21 [Example 23] | – | – | 70% | – | 82% | 90% | – | – | – | –
24 | 3.96[a] | – | CCCCON=C1CCc2c(NC(=O)c3c(C(F)F)nn(C)c3F)cccc21 [Example 24] | – | – | – | – | – | 80% | – | – | – | –
25 | 3.27[a] | – | CCON=C1CCc2c(NC(=O)c3c(C(F)F)nn(C)c3Cl)cccc21 [Example 26] | 72% | 94% | – | – | 100% | – | – | – | – | –
26 | 3.52[a] | – | CCCON=C1CCc2c(NC(=O)c3c(C(F)F)nn(C)c3F)cccc21 [Example 28] | 71% | – | – | – | – | – | – | – | – | –
27 | 4.01[a] | – | CCC1Cc2cccc(NC(=O)c3c(C(F)F)nn(C)c3Cl)c2C1 (centres unmarked) [Example 30] | – | 100% | – | 83% | 100% | 70% | – | – | – | –
28 | 3.44[a] | – | CC1CCc2cccc(NC(=O)c3c(C(F)F)nn(C)c3Cl)c21 (centres unmarked) [Example 31] | – | 100% | – | – | 100% | 80% | – | – | – | –
29 | 4.49[a] | – | CC(C)C1Cc2cccc(NC(=O)c3c(C(F)F)nn(C)c3Cl)c2C1C (centres unmarked) [Example 48] | – | 100% | 100% | – | 100% | 80% | – | – | – | –
30 | 3.85[a] | – | CC1CC2(CC2)c2cccc(NC(=S)c3c(C(F)F)nn(C)c3Cl)c21 (centres unmarked) [Example 49] | – | 94% | – | 83% | 100% | 71% | – | – | – | –
31 | 4.68[a] | – | CC(C)C1Cc2cccc(NC(=O)c3c(C(F)F)nn(C)c3Cl)c2C1C (centres unmarked) [Example 56] | – | 83% | – | – | 86% | 80% | – | – | – | –
32 | 3.64[a] | – | Cn1nc(C(F)F)c(C(=O)Nc2cccc3c2CC(C)(C)C3)c1F [Example 72] | – | 98% | 100% | – | 100% | 71% | – | – | – | –
33 | 5.31[a] | – | CC1CC(CC(C)(C)C)c2cccc(NC(=S)c3c(C(F)F)nn(C)c3Cl)c21 (centres unmarked) [Example 98] | – | 98% | 98% | – | 100% | – | – | – | – | –
